# Measured values reported in PMC6332508, “A Promising PET Tracer for Imaging of α7 Nicotinic Acetylcholine Receptors in the Brain: Design, Synthesis, and in Vivo Evaluation of a Dibenzothiophene-Based Radioligand” (Molecules, 2015).
# Columns and labels:
# [1] = In vitro radiochemical stability; assay type: physicochemical; details: 40 °C, up to 90 min
# Protocol: in vitro radiochemical stability of [^18F]10a was investigated in 0.9% NaCl solution, PBS (pH 7.2), and 0.01 M Tris-HCl (pH 7.4 at 21 °C) at 40 °C and in EtOH at room temperature for up to 90 min. Samples were taken at 15, 30, 60, and 90 min of incubation time and analyzed by radio-TLC and radio-HPLC. Log D7.2 of [^18F]10a was experimentally determined in n-octanol/phosphate-buffered saline (PBS; 0.01 M, pH 7.2) at room temperature by the shake-flask method in multiple distribution. Measurement was performed twice in triplicate.
# [2] = target: T1, α7 nAChR (Macaca mulatta, UniProt Q866A2); assay: Comparative PET study in a rhesus monkey; assay type: in vivo, rhesus monkey (Macaca mulatta)
# T1 construct: from tissue; host or cells: brain of a living rhesus monkey
# T1 sequence (Q866A2 23-502): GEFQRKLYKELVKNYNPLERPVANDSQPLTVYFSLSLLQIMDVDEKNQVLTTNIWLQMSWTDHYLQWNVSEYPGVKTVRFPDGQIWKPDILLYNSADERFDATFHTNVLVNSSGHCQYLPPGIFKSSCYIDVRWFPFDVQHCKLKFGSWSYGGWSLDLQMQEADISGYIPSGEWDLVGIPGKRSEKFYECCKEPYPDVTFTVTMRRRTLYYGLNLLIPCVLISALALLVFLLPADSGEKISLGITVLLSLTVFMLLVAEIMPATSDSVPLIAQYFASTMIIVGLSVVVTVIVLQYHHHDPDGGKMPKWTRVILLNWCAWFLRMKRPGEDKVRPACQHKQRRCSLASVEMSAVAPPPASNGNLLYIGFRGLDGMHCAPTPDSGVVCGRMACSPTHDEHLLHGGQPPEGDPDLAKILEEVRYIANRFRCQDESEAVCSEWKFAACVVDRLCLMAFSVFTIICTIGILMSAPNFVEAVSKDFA
# Protocol: One male rhesus monkey (Macaca mulatta, 6 years old, body weight = 10 kg) underwent two PET imaging sessions with [^18F]10a and [^18F]10b, respectively. The scans were conducted 19 days apart. The monkey was initially sedated by intramuscular ketamine at 10 mg∙kg^−1 at ~2 h before the PET scan and anesthetized by 1.5%–3% isoflurane throughout the imaging session. PET scan was performed using a FOCUS-220 PET scanner (Siemens Preclinical Solutions, Knoxville, TN, USA). After a transmission scan, 167 MBq of [^18F]10a (specific activity of 362 GBq∙μmol^−1) or 185 MBq of [^18F]10b (specific activity of 159 GBq·μmol^−1) were administered intravenously. Emission data were acquired in list mode for 240 min. Raw list-mode PET data was histogrammed (frames of 6 × 30 s; 3 × 1 min; 2 × 2 min; 46 × 5 min to scan termination) and reconstructed with 2D filtered back projection, using a 0.15 cm^−1 Shepp filter and including corrections for scanner normalization, detector dead time, randoms, and radiation scatter and attenuation. The PET images were then registered to MR images, acquired with a Siemens 3 T Trio scanner, with a 6-parameter rigid body registration. The MR native space was then normalized using nonlinear affine registration to a high-resolution rhesus monkey atlas using BioImage Suite 3.01 (http://www.bioimagesuite.org/index.html). Time-activity curves were extracted by mapping atlas-defined regions to PET native space using the optimal transformation matrices calculated in the registration and normalization steps. Regions extracted included amygdala, caudate, cerebellum, cingulate, cortical regions (frontal, occipital, and temporal cortex), hippocampus, putamen, thalamus, and pons.
smiles,measurement,setting,value
O=S1(=O)c2ccc([18F])cc2-c2ccc(N3CCN4CCC3CC4)cc21 [[^18F]10a],stability in physiological solutions and organic solvents,[1],stable
same,total volume of distribution VT,[2]; cerebellum,28.5 mL∙cm^−3
same,total volume of distribution VT,[2]; thalamus,48.1 mL∙cm^−3
